The subject of test [1] is 4T1 mammary carcinoma cells. The experiment in a line: 4T1 experimental metastasis assay. The settings on record: IVIS imaging day 7; glycopolymer 100 μg/mouse i.p. 20 min before and together with the cells. Type of test: in vivo, BALB/c mice. As for the experimental part: 4T1 Metastasis Assay. Luciferase-labeled 4T1 mammary carcinoma cells (1×10^5/mouse) were injected i.v. (n=6 mice/group) with vehicle alone (control, PBS), with positive control (heparin), or with GlcNS(6S)α((1,4)GlcA glycopolymer (DP=12, 100 μg/mouse) into BALB/c mice (i.p) 20 min prior to cell inoculation and also together with the cells. IVIS bioluminescent imaging was performed on day 7 after cell inoculation. For IVIS imaging, mice were injected intraperitoneally with D-luciferin substrate at 150 mg/kg and anesthetized with continuous exposure to isoflurane (EZAnesthesia, Palmer, Pa.). The experiment was repeated 3 times with similar results.
4T1 Metastasis Assay (Menhofer, et al., PLOS ONE 2014, 9, el 12542). Luciferase-labeled 4T1 breast carcinoma cells (1×10^5/mouse) were injected i.v (n=6 mice/group) with vehicle alone (control, PBS), with positive control (heparin), or with GlcNS(6S)α(1,4)GlcA glycopolymer (DP=12, 100 μg/mouse) into BALB/c mice (i.p) 20 min prior to cell inoculation and also together with the cells. IVIS bioluminescent imaging was performed on day 7 after cell inoculation. […] Light emitted from the bioluminescent cells is detected by the IVIS camera system with images quantified for tumor burden using a log-scale color range set at 5×10^4 to 1×10^7 and measurement of total photon counts per second (PPS) using Living Image software (Xenogen). […]

For another test, the target named is T1, FGF-2 (Homo sapiens, UniProt P09038).
T1 construct: purchased R&D Systems
T1 sequence (P09038 143-288, species assumed): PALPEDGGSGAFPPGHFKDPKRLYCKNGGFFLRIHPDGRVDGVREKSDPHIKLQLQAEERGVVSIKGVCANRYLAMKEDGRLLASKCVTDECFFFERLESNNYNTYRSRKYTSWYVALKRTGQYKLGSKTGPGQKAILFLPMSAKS
Description: Solution-based competitive BLI assay, FGF-2. Type of test: binding. To be noted: competition with immobilized biotin-heparin (18 kDa), 25° C., read-out: dissociation constant (apparent Kd) to FGF-2. As for the experimental part: (§1) Biolayer Interferometry Cross-Bioactivity Assay. BLI assays were performed on an Octet Red Instrument (fortéBIO) at 25° C. Immobilization and binding analysis were carried out at 1000 rpm using HBS-EP buffer.
(§2) Biolayer Interferometry (BLI) Assay. BLI assays were performed on an Octet Red Instrument (fortéBIO) at 25° C. Immobilization and binding analysis were carried out at 1000 rpm using HBS-EP buffer [10 mM HEPES, pH 7.4, 150 mM NaCl, 3.0 mM EDTA, and 0.005% (v/v) surfactant tween20]. A solution affinity assay, used to determine affinities of ligands by SPR analysis, was adopted to BLI (Cochran et al., Glycoconjugate J. 2009, 26, 577-587.). In this method, protein is mixed with various concentrations of ligand (glycopolymer C5A or heparin, 18 kDa). Free protein in this equilibrium mixture is tested for binding against immobilized heparin (all proteins are carrier-free and purchased from R&D Systems). Heparin-biotin (Creative PEGworks, 18 kDa, 1 biotin per HP polymer), 5 μg/mL was immobilized on to streptavidin biosensors (fortéBio) for 5 min. Binding experiments were carried out under conditions of mass transport. Binding was fitted to equation 1 (as taught in reference Chai, et al. Anal. Biochem. 2009, 395, 263-264.) using Graphpad Prism. BLI response was used in place of F and ligand (heparin/glycopolymer C5A) concentration was used in place of [metal]. […]

The next test deals with T2, FGF-1 (Homo sapiens, UniProt P05230).
T2 construct: purchased R&D Systems
T2 sequence (P05230 whole entry, species assumed): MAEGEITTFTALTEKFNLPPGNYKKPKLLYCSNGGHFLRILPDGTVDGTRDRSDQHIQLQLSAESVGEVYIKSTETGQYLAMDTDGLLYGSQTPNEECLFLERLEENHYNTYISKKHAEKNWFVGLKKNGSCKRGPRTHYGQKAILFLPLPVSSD
The experiment in a line: Solution-based competitive BLI assay, FGF-1. Type of test: binding. The settings on record: competition with immobilized biotin-heparin (18 kDa), 25° C., read-out: dissociation constant (apparent Kd) to FGF-1. As for the experimental part:
as §1, §2

The target of a further test is T3, P-selectin (Homo sapiens, UniProt P16109).
T3 construct: purchased R&D Systems
T3 sequence (P16109 42-830): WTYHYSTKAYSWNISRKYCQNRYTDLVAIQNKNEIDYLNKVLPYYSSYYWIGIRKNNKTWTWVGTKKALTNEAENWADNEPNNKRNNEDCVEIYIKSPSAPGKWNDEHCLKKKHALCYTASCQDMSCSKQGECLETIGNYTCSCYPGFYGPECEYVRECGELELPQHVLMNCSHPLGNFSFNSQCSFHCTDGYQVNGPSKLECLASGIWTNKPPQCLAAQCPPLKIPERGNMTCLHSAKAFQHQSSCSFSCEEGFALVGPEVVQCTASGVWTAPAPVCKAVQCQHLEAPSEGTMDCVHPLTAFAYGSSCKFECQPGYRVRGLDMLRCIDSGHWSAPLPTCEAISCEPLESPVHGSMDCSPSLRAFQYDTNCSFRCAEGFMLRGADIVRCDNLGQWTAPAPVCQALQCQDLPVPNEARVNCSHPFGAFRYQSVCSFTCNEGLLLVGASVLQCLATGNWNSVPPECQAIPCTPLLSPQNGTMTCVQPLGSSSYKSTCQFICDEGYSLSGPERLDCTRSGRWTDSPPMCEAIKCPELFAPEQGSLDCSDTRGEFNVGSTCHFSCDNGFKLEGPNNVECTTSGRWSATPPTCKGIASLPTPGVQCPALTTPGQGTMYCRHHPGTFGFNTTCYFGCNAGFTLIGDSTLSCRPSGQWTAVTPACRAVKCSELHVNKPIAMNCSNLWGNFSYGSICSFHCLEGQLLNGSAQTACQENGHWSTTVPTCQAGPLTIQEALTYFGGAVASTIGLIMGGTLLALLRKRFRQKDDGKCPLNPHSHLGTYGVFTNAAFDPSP
Description: Solution-based competitive BLI assay, P-selectin. Type of test: binding. The settings on record: HBS-EP buffer with 2 mM CaCl2, 2 mM MgCl2 and 0.5 mg/mL BSA. As for the experimental part: as §1, §2

For the next test, the target named is T4, VEGF (Homo sapiens, UniProt P15692).
T4 construct: purchased R&D Systems
T4 sequence (P15692 27-191 isoform P15692-4): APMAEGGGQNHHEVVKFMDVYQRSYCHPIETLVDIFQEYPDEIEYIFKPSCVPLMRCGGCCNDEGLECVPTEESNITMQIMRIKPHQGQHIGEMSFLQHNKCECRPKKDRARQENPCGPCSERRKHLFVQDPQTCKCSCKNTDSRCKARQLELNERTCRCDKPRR
The experiment in a line: Solution-based competitive BLI assay, VEGF. The class given is binding. The settings on record: competition with immobilized biotin-heparin (18 kDa), 25° C., read-out: dissociation constant (apparent Kd) to VEGF. As for the experimental part:
as §1, §2

In another test the target is T5, platelet factor-4 (PF4) (Homo sapiens, UniProt P02776).
T5 construct: purchased R&D Systems
T5 sequence (P02776 32-101): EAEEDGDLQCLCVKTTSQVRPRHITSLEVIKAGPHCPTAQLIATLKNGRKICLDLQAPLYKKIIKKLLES
The experiment in a line: Solution-based competitive BLI assay, PF4. Type of test: binding. The settings on record: competition with immobilized biotin-heparin (18 kDa), 25° C., read-out: dissociation constant (apparent Kd) to PF4. As for the experimental part:
as §1, §2

In the case of Roneparstat, in test [1], the “antimetastatic effect, lung metastasis of 4T1 cells” value was “effect was similar”.

As to heparin [reference compound], the Kd at FGF-2 came to 0.15 ± 0.11 nM; on FGF-1, 4.6 ± 3.3 nM; on P-selectin it was 125 ± 152 nM; at VEGF it was 4.91 ± 1.55 nM; on platelet factor-4 (PF4) it was 0.31 ± 0.028 nM. In addition, in test [1], the “antimetastatic effect, lung metastasis of 4T1 cells” value is on record as “reduced the size of the metastasized lung tumor by half”.
